Source: ChEMBL document CHEMBL1201862, “PubChem BioAssay data set” (2004)
The source made the active and inactive calls.

Columns and labels:
Vero = test: host cell cytotoxicity of antiviral hits, dose response, cytotoxicity control for West Nile virus antiviral project, secondary assay (AID 1650); format: functional; conditions: Chlorocebus sabaeus
[1] = growth suppression of PTEN-null colon cells, dose response, cell-based, HCT116 PTEN knockout (AID 1047); format: functional;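 also: HCT116 colon tumor cells with PTEN knocked out; cells exposed to compound for 60 hours before readout; potency for loss of cell viability measured by luminescence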
[2] = growth suppression of beta-catenin-knockout colon cells, dose response, cell-based, HCT116, human colon tumor (AID 1045); format: functional;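 also: HCT116 colon tumor cells with beta catenin knocked out; cells exposed to compound for 60 hours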
[3] = biological target: T1, 1-phosphatidylinositol 4,5-bisphosphate phosphodiesterase gamma-1 (Homo sapiens, UniProt P19174); test: Counterscreen for inhibitors of phospholipase C isozymes (PLC-B3): Fluorescence-based biochemical high throughput dose response assay to identify inhibitors of phospholipase C isozymes (PLC-gamma1).
T1 sequence (P19174 whole entry): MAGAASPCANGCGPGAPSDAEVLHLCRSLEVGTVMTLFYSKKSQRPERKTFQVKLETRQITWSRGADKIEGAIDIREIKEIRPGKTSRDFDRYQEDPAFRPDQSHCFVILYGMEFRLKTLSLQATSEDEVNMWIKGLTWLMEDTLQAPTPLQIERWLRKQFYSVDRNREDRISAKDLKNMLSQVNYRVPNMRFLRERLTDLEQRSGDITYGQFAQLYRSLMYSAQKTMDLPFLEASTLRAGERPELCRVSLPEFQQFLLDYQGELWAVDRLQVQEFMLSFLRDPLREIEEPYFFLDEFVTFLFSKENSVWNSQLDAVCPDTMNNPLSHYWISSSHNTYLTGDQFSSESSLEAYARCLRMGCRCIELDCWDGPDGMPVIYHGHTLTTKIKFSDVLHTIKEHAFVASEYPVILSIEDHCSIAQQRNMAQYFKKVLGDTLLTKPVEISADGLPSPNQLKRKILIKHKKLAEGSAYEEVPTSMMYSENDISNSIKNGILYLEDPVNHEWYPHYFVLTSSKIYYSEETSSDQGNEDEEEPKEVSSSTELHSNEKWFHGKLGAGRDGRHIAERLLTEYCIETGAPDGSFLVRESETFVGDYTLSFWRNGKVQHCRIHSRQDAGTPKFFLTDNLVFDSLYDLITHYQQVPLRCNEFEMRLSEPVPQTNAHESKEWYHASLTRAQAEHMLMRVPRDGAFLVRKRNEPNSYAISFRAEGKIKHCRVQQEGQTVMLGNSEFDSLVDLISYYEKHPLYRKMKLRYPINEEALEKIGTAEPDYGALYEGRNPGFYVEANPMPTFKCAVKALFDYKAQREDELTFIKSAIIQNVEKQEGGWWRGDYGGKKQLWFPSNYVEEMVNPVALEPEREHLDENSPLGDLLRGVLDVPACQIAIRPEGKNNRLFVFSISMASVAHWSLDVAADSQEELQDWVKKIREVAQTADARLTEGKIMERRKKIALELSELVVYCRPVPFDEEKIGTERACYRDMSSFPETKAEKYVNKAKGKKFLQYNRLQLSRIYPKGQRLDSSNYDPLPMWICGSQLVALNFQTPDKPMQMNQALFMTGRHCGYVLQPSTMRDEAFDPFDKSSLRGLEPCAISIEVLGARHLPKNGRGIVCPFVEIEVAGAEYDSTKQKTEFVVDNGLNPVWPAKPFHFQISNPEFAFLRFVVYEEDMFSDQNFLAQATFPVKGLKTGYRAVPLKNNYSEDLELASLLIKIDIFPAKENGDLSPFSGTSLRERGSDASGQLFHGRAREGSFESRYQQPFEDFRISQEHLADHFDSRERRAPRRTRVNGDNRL

[4] = biological target: T2, 1-phosphatidylinositol 4,5-bisphosphate phosphodiesterase beta-3 (Homo sapiens, UniProt Q01970); test: Fluorescence-based biochemical high throughput dose response assay to identify inhibitors of phospholipase C isozymes (PLC-B3).
T2 sequence (Q01970 whole entry): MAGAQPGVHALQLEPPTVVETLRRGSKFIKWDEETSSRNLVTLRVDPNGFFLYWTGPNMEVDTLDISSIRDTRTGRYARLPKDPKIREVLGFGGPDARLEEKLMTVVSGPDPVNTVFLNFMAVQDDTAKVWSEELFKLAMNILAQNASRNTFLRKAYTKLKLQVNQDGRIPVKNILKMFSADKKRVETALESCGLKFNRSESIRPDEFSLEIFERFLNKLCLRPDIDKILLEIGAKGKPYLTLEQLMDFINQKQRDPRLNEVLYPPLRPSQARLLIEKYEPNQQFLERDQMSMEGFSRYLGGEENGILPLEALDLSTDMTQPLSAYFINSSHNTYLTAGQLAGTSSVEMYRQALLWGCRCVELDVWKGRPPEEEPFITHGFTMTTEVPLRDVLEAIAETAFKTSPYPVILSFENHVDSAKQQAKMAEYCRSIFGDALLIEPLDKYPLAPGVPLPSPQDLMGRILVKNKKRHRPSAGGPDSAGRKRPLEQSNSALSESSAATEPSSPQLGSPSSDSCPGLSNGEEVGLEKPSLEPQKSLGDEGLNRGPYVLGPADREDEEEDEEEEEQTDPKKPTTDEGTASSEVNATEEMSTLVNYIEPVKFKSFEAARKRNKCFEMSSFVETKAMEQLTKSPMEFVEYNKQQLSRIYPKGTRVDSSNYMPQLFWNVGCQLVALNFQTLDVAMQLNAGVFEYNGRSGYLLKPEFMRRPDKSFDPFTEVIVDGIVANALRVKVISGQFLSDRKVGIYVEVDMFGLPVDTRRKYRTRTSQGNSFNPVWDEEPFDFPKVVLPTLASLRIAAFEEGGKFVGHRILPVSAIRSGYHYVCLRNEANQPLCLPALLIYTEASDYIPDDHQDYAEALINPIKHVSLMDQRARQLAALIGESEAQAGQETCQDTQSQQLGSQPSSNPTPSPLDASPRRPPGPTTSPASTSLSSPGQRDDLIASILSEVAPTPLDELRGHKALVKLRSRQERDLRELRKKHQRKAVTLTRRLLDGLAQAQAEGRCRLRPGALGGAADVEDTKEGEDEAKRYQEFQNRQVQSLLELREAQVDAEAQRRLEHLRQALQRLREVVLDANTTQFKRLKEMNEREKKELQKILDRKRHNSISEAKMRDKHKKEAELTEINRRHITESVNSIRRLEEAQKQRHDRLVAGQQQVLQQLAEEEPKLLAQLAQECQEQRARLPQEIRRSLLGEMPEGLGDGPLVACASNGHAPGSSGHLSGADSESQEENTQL

[5] = Luminescence Cell-Based Dose Response to Identify Activators of 5'UTR Stem-Loop Driven Prion Protein mRNA Translation in H4-C Neuroglioblastoma Cells. [Related pubchem assays: 1829 (Project Summary), 1814 (Primary HTS)]; format: functional
[6] = Luminescence Cell-Based Dose Response HTS to Identify Activators of Luciferase Translation or Activity in H4 […] Cells. [Related pubchem assays: 1829 (Project Summary), 1814 (Primary HTS)]; format: functional
H4 = test: Luminescence Cell-Based Dose Response HTS to Identify Activators of 5'UTR Stem-Loop Driven Prion Protein mRNA Translation in H4 Neuroglioblastoma Cells. [Related pubchem assays: 1829 (Project Summary), 1814 (Primary HTS)]; format: functional; conditions: Homo sapiens
[7] = Luminescence Cell-Based Dose Response to Identify Activators of Luciferase Translation or Activity in H4-C Neuroglioblastoma Cells. [Related pubchem assays: 1829 (Project Summary), 1814 (Primary HTS)]; format: functional
[8] = Luminescence Cell-Based Dose Confirmation to Identify Activators of 5'UTR Stem-Loop Driven Alpha-Synuclein mRNA Translation in H4 Neuroglioblastoma Cells. [Related pubchem assays: 1829 (Project Summary), 1814 (Primary HTS)]; format: functional
Leucine aminopeptidase = biological target: T3, Leucine aminopeptidase (Plasmodium falciparum 3D7, UniProt Q8IL11); test: P. falciparum M17LAP inhibitors, primary screen, biochemical, fluorogenic H-Leu-NHMec substrate, 1536-well (AID 1619); format: functional
T3 sequence (Q8IL11 whole entry): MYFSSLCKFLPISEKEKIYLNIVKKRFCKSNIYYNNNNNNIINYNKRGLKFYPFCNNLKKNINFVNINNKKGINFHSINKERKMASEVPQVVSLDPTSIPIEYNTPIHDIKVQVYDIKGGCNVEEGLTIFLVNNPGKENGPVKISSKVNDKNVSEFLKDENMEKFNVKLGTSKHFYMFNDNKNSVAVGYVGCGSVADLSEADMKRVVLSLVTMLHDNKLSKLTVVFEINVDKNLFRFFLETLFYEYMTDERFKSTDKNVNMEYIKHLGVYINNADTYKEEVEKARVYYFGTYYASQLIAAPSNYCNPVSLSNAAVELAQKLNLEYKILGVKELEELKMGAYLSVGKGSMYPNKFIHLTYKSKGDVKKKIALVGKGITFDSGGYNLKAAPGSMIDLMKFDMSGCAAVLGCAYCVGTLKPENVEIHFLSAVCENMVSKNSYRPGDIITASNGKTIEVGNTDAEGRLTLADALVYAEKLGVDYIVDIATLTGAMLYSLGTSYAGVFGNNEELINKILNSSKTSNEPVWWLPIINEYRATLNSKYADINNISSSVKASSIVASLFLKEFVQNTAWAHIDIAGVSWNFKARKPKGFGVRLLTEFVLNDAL

Caspase-6 = biological target: T4, Caspase-6 (Homo sapiens, UniProt P55212); test: human caspase-6 inhibitors, dose response, biochemical, VEID-R110 fluorescence, cherry-pick (AID 720632)
T4 sequence (P55212 whole entry): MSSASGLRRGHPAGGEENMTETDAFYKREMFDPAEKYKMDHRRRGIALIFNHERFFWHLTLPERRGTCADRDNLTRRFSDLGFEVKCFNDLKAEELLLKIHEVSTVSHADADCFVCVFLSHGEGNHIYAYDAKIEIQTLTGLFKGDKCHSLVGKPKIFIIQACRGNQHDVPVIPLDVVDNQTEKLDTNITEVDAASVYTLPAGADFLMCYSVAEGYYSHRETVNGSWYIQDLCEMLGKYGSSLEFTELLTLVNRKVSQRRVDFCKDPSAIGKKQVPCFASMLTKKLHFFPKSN

[9] = THP-1 cell cytotoxicity, dose response, cytotoxicity control for Vif-APOBEC3G degradation inhibitor project, THP-1 cells (AID 1117359); format: functional; conditions: Human immunodeficiency virus 1, THP-1

COc1cc(/C=C/C(=O)c2ccc(O)cc2)ccc1OCC#N
CC50 (Vero): 31.9 µM (active) | EC50 [1]: 2.34 µM (active) | EC50 [2]: 1.93 µM (active)

CC(C)(C)c1ccc(CNc2nc(-c3ccccn3)nnc2-c2ccccc2)cc1
IC50 [3]: > 122 µM (inactive) | IC50 [4]: > 122 µM (inactive)

CCn1c(=N)n(CC(=O)c2ccc(Cl)c(Cl)c2)c2ccccc21
EC50 [5]: 0.771 µM (active) | EC50 [6]: < 0.1 µM (active) | EC50 (H4): > 120 µM (not active) | CC50 (Vero): 15.5 µM (active) | EC50 [7]: 0.474 µM (active) | EC50 [8]: 1.18 µM (active)

O=C(O)CCC(=O)Nc1sc2c(c1C(=O)Nc1ccccc1)CCCCC2
IC50 (Leucine aminopeptidase): 47 µM (active) | AC50 (Caspase-6): 45 µM (active)

CCN(CCCNC(=O)C1CCCN(S(=O)(=O)CC)C1)c1cccc(C)c1 (centres undefined)
CC50 [9]: > 40 µM (active)
